Data as given in publication PMC8389614, “A Comparison of Acute Pharmacological Effects of Methylone and MDMA Administration in Humans and Oral Fluid Concentrations as Biomarkers of Exposure” (Biology, 2021).

Columns and labels:
healthy poly-drug users [1] = assay: Subjective effects, ARCI 49-item short form; type: in vivo, humans; parameters: key to ARCI PCAG Dunnet’s Test: “a” (times 0–1 h); “b” (times 0–2 h); “c” (times 0–4 h); not significant (NS); conditions: for ARCI A (increased energy) AUC0–4h / ARCI A (increased energy) Emax / ARCI BG (intellectual efficiency) AUC0–4h / ARCI BG (intellectual efficiency) Emax / ARCI MBG (euphoria) AUC0–4h / ARCI MBG (euphoria) Emax / ARCI PCAG (sedation) AUC0–4h / ARCI PCAG (sedation) Emax / ARCI A (increased energy) Tmax: oral, methylone 100–300 mg n=8, MDMA 75–100 mg n=6; for ARCI A (increased energy) AUC0–4h / ARCI A (increased energy) Emax / ARCI BG (intellectual efficiency) AUC0–4h / ARCI BG (intellectual efficiency) Emax / ARCI MBG (euphoria) AUC0–4h / ARCI MBG (euphoria) Emax / ARCI PCAG (sedation) AUC0–4h / ARCI PCAG (sedation) Emax: baseline-adjusted, mean ± SD; for ARCI A (increased energy) Tmax: median (min–max); for ARCI A Dunnet’s Test / ARCI BG Dunnet’s Test / ARCI MBG Dunnet’s Test / ARCI PCAG Dunnet’s Test: time points significantly different from baseline
Description: (§1) The study was designed as a non-controlled prospective observational study in a naturalistic setting with methylone and MDMA self-administration. The methodology, including procedures and evaluations, coincides with previous observational–naturalistic studies aimed at evaluating the acute effects of other NPS [38, 39, 40]. Six subjects (5 M, 1 F) self-administered MDMA and 8 subjects (5 M, 3 F) self-administered methylone. Each subject participated only in one session. Participants brought their own substance obtained from an unknown source, which was tested by Energy Control, a harm reduction organization that provides a drug checking service to drug users. Pills containing methylone and MDMA were analyzed by gas chromatography associated with mass spectrometry (GC/MS), a technique that traces the presence of the most frequent drugs of abuse, such as MDMA, cocaine, heroin, amphetamine and methamphetamine, LSD, and multiple NPS (methylone, mephedrone, and other synthetic cathinones, synthetic cannabinoids, tryptamines, among others).
(§2) In both sessions, participants selected the dose of methylone or MDMA according to their previous drug use experience. Doses of methylone could be selected from a range (75–300 mg) that was previously defined according to the consulted literature. The WHO Expert Committee on Drug Dependence (Thirty-Sixth Meeting, Geneva, Switzerland, 16–20 June 2014) established that 60 mg of methylone was the threshold dose and doses over 250 mg were often related to very strong activity. Some users have reported uses of 300 mg of methylone as a common dose [www.erowid.org] (accessed on 15 June 2021). The mean of the selected doses of MDMA was 87.50 mg (3 subjects ingested 75 mg (2 males and 1 female), 3 males 100 mg). In the other study session, methylone doses ranged from 100 to 300 mg, with a mean of 187.50 mg. Based on their dose selection, 1 male ingested 100 mg, 2 subjects 150 mg (1 male and 1 female), 4 subjects 200 mg (2 males and 2 females), and 1 male 300 mg.
(§3) The sessions were conducted in a naturalistic setting. Participants were allowed to talk, read, listen to music, or play games, except during the evaluation times. However, they were asked to refrain from talking about the effects of the substance. All the subjects were evaluated simultaneously at baseline, 1, 2, and 4 h after administration of methylone or MDMA, which occurred approximately at 16:00 h. At each time point, evaluations were followed in a specific order: physiological effects, oral fluid collection, and subjective effects scales and questionnaires.
Subjective effects were evaluated at baseline, 1, 2, and 4 h after self-administration using visual analogue scales (VAS), the Addiction Research Center Inventory (ARCI), and the Evaluation of Subjective Effects of Substances with Abuse Potential questionnaire (VESSPA-SSE).
The standardized ARCI 49-item short form is a true/false questionnaire used to evaluate the subjective effects of drugs of abuse. This inventory includes five subscales that assess pentobarbital–chlorpromazine–alcohol-like effects (PCAG, sedation), morphine–benzedrine-like effects (MBG, euphoria), lysergic acid diethylamide-like effects (LSD, dysphoria), benzedrine-like effects (BG, intellectual efficiency), and amphetamine-like effects (A, increased energy).
(§4) Vital signs (SBP, DBP, and HR) and subjective effects (VAS, ARCI, and VESSPA-SSE) were baseline-adjusted. Maximum effects and the time in which maximum effects appeared were determined, and the area under the curve (AUC0–4h) was calculated with the trapezoidal rule.
(§5) Thirdly, to find possible significant changes from baseline, a Dunnett multiple comparison test was conducted to compare each time point with baseline in both drug conditions (0–1 h, 0–2 h, 0–4 h).

[2] = Oral fluid concentrations (Salivette, LC-MS/MS); type: in vivo, humans; conditions: both sexes, human; for Cmax / AUC(0-t): methylone 100–300 mg n=8, MDMA 75–100 mg n=6, mean ± SD; for AUC(0-t): read-out: Oral fluid AUC0–4 h; for Tmax: methylone 100–300 mg n=8, MDMA 75–100 mg n=6, median (min–max)
Experimental: In both sessions, oral fluid samples were collected with Salivette to determine methylone and MDMA concentrations in oral fluid at baseline, 1 h, 2 h, and 4 h. All samples were centrifuged after collection and stored frozen at −20 °C until analysis. Methylone and MDMA oral fluid concentrations were quantified via liquid chromatography tandem–mass spectrometry (LC–MS/MS).
For oral fluid concentrations of MDMA and methylone, only a descriptive analysis was presented showing main pharmacokinetics data such as the maximum concentration (Cmax), the time required to reach maximum concentrations (Tmax), and AUC0–4h. These parameters were calculated using the Pharmacokinetic Functions for Microsoft Excel (Joel Usansky, Atul Desai, and Diane Tang-Liu, Department of Pharmacokinetics and Drug Metabolism, Allergan, Irvine, CA, USA).

healthy poly-drug users [3] = assay: Physiological effects (non-invasive SBP, DBP, HR, cutaneous temperature) after oral self-administration; type: in vivo, humans; parameters: key to HR Dunnet’s Test: “a” (times 0–1 h); “b” (times 0–2 h); “c” (times 0–4 h); not significant (NS); conditions: for DBP AUC0–4h / DBP Emax / HR AUC0–4h / HR Emax / SBP AUC0–4h / SBP Emax / Variation in cutaneous temperature: oral; for DBP AUC0–4h / DBP Emax / HR AUC0–4h / HR Emax / SBP AUC0–4h / SBP Emax: methylone 100–300 mg n=8, MDMA 75–100 mg n=6, baseline-adjusted, mean ± SD; for Variation in cutaneous temperature: methylone 100–300 mg, MDMA 75–100 mg, versus baseline, 0–4 h; for DBP Dunnet’s Test / HR Dunnet’s Test / SBP Dunnet’s Test: time points significantly different from baseline
Description: as §1, §2, §3
Non-invasive systolic blood pressure (SBP), diastolic blood pressure (DBP), and heart rate (HR) were measured with subjects in the sitting position, using an automatic Omron monitor at baseline, 1, 2, and 4 h (h) after self-administration. Cutaneous temperature was determined at the same time points.
as §4, §5

5-HT2C receptors = tested on: 5-HT2C receptors; parameters: method as in PMID 25237120, PMID 23583454; conditions: cited from earlier work

SMILES | ARCI A (increased energy) AUC0–4h (healthy poly-drug users [1]) | ARCI A (increased energy) Emax (healthy poly-drug users [1]) [score] | ARCI BG (intellectual efficiency) AUC0–4h (healthy poly-drug users [1]) | ARCI BG (intellectual efficiency) Emax (healthy poly-drug users [1]) [score] | ARCI MBG (euphoria) AUC0–4h (healthy poly-drug users [1]) | ARCI MBG (euphoria) Emax (healthy poly-drug users [1]) [score] | ARCI PCAG (sedation) AUC0–4h (healthy poly-drug users [1]) | ARCI PCAG (sedation) Emax (healthy poly-drug users [1]) [score] | ARCI A (increased energy) Tmax (healthy poly-drug users [1]) | ARCI A Dunnet’s Test (healthy poly-drug users [1]) | ARCI BG Dunnet’s Test (healthy poly-drug users [1]) | ARCI MBG Dunnet’s Test (healthy poly-drug users [1]) | ARCI PCAG Dunnet’s Test (healthy poly-drug users [1]) | Cmax [2] [µg/mL] | AUC(0-t) [2] [µg·h/mL] | Tmax [2] [h] | DBP AUC0–4h (healthy poly-drug users [3]) | DBP Emax (healthy poly-drug users [3]) [mmHg] | HR AUC0–4h (healthy poly-drug users [3]) | HR Emax (healthy poly-drug users [3]) [bpm] | also measured
CNC(C)Cc1ccc2c(c1)OCO2 (stereo not drawn) [MDMA, 3,4-methylenedioxymethamphetamine] | 15.75 ± 2.79 | 5.83 ± 1.17 | 9.83 ± 6.38 | 4.67 ± 2.25 | 20.83 ±10.05 | 8.0 ± 3.35 | −1.58 ± 8.39 | −0.83 ± 3.54 | 1.0 (1.0–2.0) h | a, b, c | a, b | a, b | NS | 2.94 ± 2.76 | 6.59 ± 5.23 | 2 | 78.92 ± 30.33 | 32.17 ± 11.29 | 23.83 ± 38.73 | 10.67 ± 18.22 | SBP AUC0–4h (healthy poly-drug users [3]): 107.67 ± 44.34; SBP Emax (healthy poly-drug users [3]): 46.83 ± 20.83 mmHg; Variation in cutaneous temperature (healthy poly-drug users [3]): Neither of the substances caused significant variations; DBP Dunnet’s Test (healthy poly-drug users [3]): a, b; HR Dunnet’s Test (healthy poly-drug users [3]): NS; SBP Dunnet’s Test (healthy poly-drug users [3]): a, b; Activity at 5-HT2C receptors (5-HT2C receptors): partial agonist rather than an antagonist
CNC(C)C(=O)c1ccc2c(c1)OCO2 (stereo not drawn) [Methylone, 3,4-methylenedioxymethcathinone] | 12.56 ± 7.77 | 5.38 ± 3.29 | 10.06 ± 7.83 | 4.63 ± 3.34 | 16.63 ± 13.21 | 7.5 ± 5.13 | −2.75 ± 3.73 | −1.25 ± 1.58 | 1.5 (1.0–4.0) h | a, b | a, b | a, b | a | 15.5 | 40.6 | 2 | 55.19 ± 31.02 | 19.63 ± 13.96 | 52.06 ± 39.16 | 20.50 ± 19.78 | SBP AUC0–4h (healthy poly-drug users [3]): 80.81 ± 42.89; SBP Emax (healthy poly-drug users [3]): 31.25 ± 14.77 mmHg; Variation in cutaneous temperature (healthy poly-drug users [3]): Neither of the substances caused significant variations; DBP Dunnet’s Test (healthy poly-drug users [3]): a, b, c; HR Dunnet’s Test (healthy poly-drug users [3]): a; SBP Dunnet’s Test (healthy poly-drug users [3]): a, b, c; Activity at 5-HT2C receptors (5-HT2C receptors): weak antagonist effects
